Data reported in PMC5601486, “Identification of 4-phenylquinolin-2(1H)-one as a specific allosteric inhibitor of Akt” (Scientific Reports, 2017).

Legend:
GSK3B = experiment: KINOMEscan; settings: 50000 nM
Procedure: KINOMEscan™ selectivity screen
(§1) Briefly, Kinase-tagged T7 phage strains were grown in parallel in an E. coli host derived from the BL21 strain. E. coli were grown to log-phase and infected with T7 phage from a frozen stock and incubated with shaking at 32°C until lysis (90-150 minutes). The kinases were produced in HEK-293 cells and subsequently tagged with DNA for qPCR detection. Streptavidin-coated magnetic beads were treated with biotinylated small molecule ligands to generate affinity resins for kinase
(§2) inhibitor or DMSO control was performed in polypropylene 384-well plates for 1 hr at room temperature. After wash with PBS buffer containing 0.05% Tween 20, the beads were incubated in elution buffer (PBS containing 0.05 % Tween 20 and 0.5 μM non-biotinylated affinity ligand) for 30 minutes at room temperature. The kinase concentration in the eluates was measured by qPCR.

[1] = test system: RPS6KA4(Kin.Dom.1-N-terminal); experiment: KINOMEscan; settings: 50000 nM
Procedure: KINOMEscan™ selectivity screen
as §1, §2

MLK3 = experiment: KINOMEscan; settings: 50000 nM
Procedure: KINOMEscan™ selectivity screen
(§3) The assay was perfor med at DiscoveRx Corporation according the methods published previously5. Briefly, Kinase-tagged T7 phage strains were grown in parallel in an E. coli host derived from the BL21 strain. E. coli were grown to log-phase and infected with T7 phage from a frozen stock and incubated with shaking at 32°C until lysis (90-150 minutes). The kinases were produced in HEK-293 cells and subsequently tagged with DNA for qPCR detection. Streptavidin-coated magnetic beads were treated with biotinylated small molecule ligands to generate affinity resins for kinase
as §2

FGFR2 = experiment: KINOMEscan; settings: 50000 nM
Procedure: KINOMEscan™ selectivity screen
as §3, §2

SNRK = experiment: KINOMEscan; settings: 50000 nM
Procedure: KINOMEscan™ selectivity screen
(§4) The assay was perfor med at DiscoveRx Corporation according the methods published previously5. […] The kinases were produced in HEK-293 cells and subsequently tagged with DNA for qPCR detection. Streptavidin-coated magnetic beads were treated with biotinylated small molecule ligands to generate affinity resins for kinase
as §2

FLT3-autoinhibited = experiment: KINOMEscan; settings: 50000 nM
Procedure: KINOMEscan™ selectivity screen
as §3, §2

PIK4CB = experiment: KINOMEscan; settings: 50000 nM
Procedure: KINOMEscan™ selectivity screen
as §3, §2

CHEK1 = experiment: KINOMEscan; settings: 50000 nM
Procedure: KINOMEscan™ selectivity screen
as §3, §2

KIT(V559D,V654A) = experiment: KINOMEscan; settings: 50000 nM
Procedure: KINOMEscan™ selectivity screen
as §3, §2

HIPK3 = experiment: KINOMEscan; settings: 50000 nM
Procedure: KINOMEscan™ selectivity screen
as §1, §2

MAPKAPK5 = experiment: KINOMEscan; settings: 50000 nM
Procedure: KINOMEscan™ selectivity screen
as §3, §2

RIPK1 = experiment: KINOMEscan; settings: 50000 nM
Procedure: KINOMEscan™ selectivity screen
as §3, §2

NDR2 = experiment: KINOMEscan; settings: 50000 nM
Procedure: as §1, §2

PFTK1 = experiment: KINOMEscan; settings: 50000 nM
Procedure: KINOMEscan™ selectivity screen
as §1, §2

Akt = test system: T1, Akt; experiment: In vitro phosphorylation of Akt T308 by PDK1; type: biochemical; settings: inactive Akt, PE/PC/PS/PIP3 vesicles
T1 construct: purchased Millipore 14-279

ULK3 = experiment: KINOMEscan; settings: 50000 nM
Procedure: KINOMEscan™ selectivity screen
as §3, §2

MEK3 = experiment: KINOMEscan; settings: 50000 nM
Procedure: KINOMEscan™ selectivity screen
as §3, §2

KIT = experiment: KINOMEscan; settings: 50000 nM
Procedure: KINOMEscan™ selectivity screen
as §1, §2

PKN1 = experiment: KINOMEscan; settings: 50000 nM
Procedure: KINOMEscan™ selectivity screen
as §3, §2

CDK5 = experiment: KINOMEscan; settings: 50000 nM
Procedure: KINOMEscan™ selectivity screen
as §3, §2

PAK1 = experiment: KINOMEscan; settings: 50000 nM
Procedure: KINOMEscan™ selectivity screen
as §3, §2

PKAC-alpha = experiment: KINOMEscan; settings: 50000 nM
Procedure: KINOMEscan™ selectivity screen
as §1, §2

EGFR = experiment: KINOMEscan; settings: 50000 nM
Procedure: KINOMEscan™ selectivity screen
as §3, §2

WNK3 = experiment: KINOMEscan; settings: 50000 nM
Procedure: KINOMEscan™ selectivity screen
as §3, §2

SgK110 = experiment: KINOMEscan; settings: 50000 nM
Procedure: KINOMEscan™ selectivity screen
as §3, §2

PLK3 = experiment: KINOMEscan; settings: 50000 nM
Procedure: KINOMEscan™ selectivity screen
as §1, §2

PIK3CG = experiment: KINOMEscan; settings: 50000 nM
Procedure: KINOMEscan™ selectivity screen
as §1, §2

CAMK1B = experiment: KINOMEscan; settings: 50000 nM
Procedure: KINOMEscan™ selectivity screen
as §4, §2

PIM2 = experiment: KINOMEscan; settings: 50000 nM
Procedure: KINOMEscan™ selectivity screen
as §3, §2

TRPM6 = experiment: KINOMEscan; settings: 50000 nM
Procedure: KINOMEscan™ selectivity screen
as §1, §2

DYRK1B = experiment: KINOMEscan; settings: 50000 nM
Procedure: KINOMEscan™ selectivity screen
as §4, §2

DDR1 = experiment: KINOMEscan; settings: 50000 nM
Procedure: KINOMEscan™ selectivity screen
as §3, §2

MRCKA = experiment: KINOMEscan; settings: 50000 nM
Procedure: KINOMEscan™ selectivity screen
as §3, §2

MST4 = experiment: KINOMEscan; settings: 50000 nM
Procedure: KINOMEscan™ selectivity screen
as §4, §2

PFTAIRE2 = experiment: KINOMEscan; settings: 50000 nM
Procedure: KINOMEscan™ selectivity screen
as §3, §2

JNK1 = experiment: KINOMEscan; settings: 50000 nM
Procedure: KINOMEscan™ selectivity screen
as §3, §2

MLCK = experiment: KINOMEscan; settings: 50000 nM
Procedure: KINOMEscan™ selectivity screen
as §3, §2

VRK2 = experiment: KINOMEscan; settings: 50000 nM
Procedure: KINOMEscan™ selectivity screen
as §3, §2

CLK3 = experiment: KINOMEscan; settings: 50000 nM
Procedure: KINOMEscan™ selectivity screen
as §1, §2

QSK = experiment: KINOMEscan; settings: 50000 nM
Procedure: KINOMEscan™ selectivity screen
as §3, §2

LOK = experiment: KINOMEscan; settings: 50000 nM
Procedure: KINOMEscan™ selectivity screen
as §3, §2

ULK1 = experiment: KINOMEscan; settings: 50000 nM
Procedure: KINOMEscan™ selectivity screen
as §3, §2

NIK = experiment: KINOMEscan; settings: 50000 nM
Procedure: KINOMEscan™ selectivity screen
Briefly, Kinase-tagged T7 phage strains were grown in parallel in an E. coli host derived from the BL21 strain. E. coli were grown to log-phase and infected with T7 phage from a frozen stock and incubated with shaking at 32°C until lysis (90-150 minutes). The kinases were produced in HEK-293 cells and subsequently tagged with DNA for qPCR detection.
After wash with PBS buffer containing 0.05% Tween 20, the beads were incubated in elution buffer (PBS containing 0.05 % Tween 20 and 0.5 μM non-biotinylated affinity ligand) for 30 minutes at room temperature. The kinase concentration in the eluates was measured by qPCR.

CSNK2A1 = experiment: KINOMEscan; settings: 50000 nM
Procedure: KINOMEscan™ selectivity screen
as §3, §2

BRAF = experiment: KINOMEscan; settings: 50000 nM
Procedure: KINOMEscan™ selectivity screen
as §3, §2

WNK2 = experiment: KINOMEscan; settings: 50000 nM
Procedure: KINOMEscan™ selectivity screen
as §4, §2

IKK-epsilon = experiment: KINOMEscan; settings: 50000 nM
Procedure: KINOMEscan™ selectivity screen
as §1, §2

KIT(V559D) = experiment: KINOMEscan; settings: 50000 nM
Procedure: KINOMEscan™ selectivity screen
as §1, §2

[2] = test system: RPS6KA4(Kin.Dom.2-C-terminal); experiment: KINOMEscan; settings: 50000 nM
Procedure: KINOMEscan™ selectivity screen
as §3, §2

MST1R = experiment: KINOMEscan; settings: 50000 nM
Procedure: KINOMEscan™ selectivity screen
as §3, §2

PIK3CA(E542K) = experiment: KINOMEscan; settings: 50000 nM
Procedure: KINOMEscan™ selectivity screen
as §3, §2

RET(V804M) = experiment: KINOMEscan; settings: 50000 nM
Procedure: KINOMEscan™ selectivity screen
as §3, §2

CSNK1G2 = experiment: KINOMEscan; settings: 50000 nM
Procedure: KINOMEscan™ selectivity screen
The kinases were produced in HEK-293 cells and subsequently tagged with DNA for qPCR detection. Streptavidin-coated magnetic beads were treated with biotinylated small molecule ligands to generate affinity resins for kinase
as §2

MST1 = experiment: KINOMEscan; settings: 50000 nM
Procedure: KINOMEscan™ selectivity screen
as §3, §2

Oc1cc(-c2ccccc2)c2ccccc2n1 [G7, 4-phenylquinolin-2(1H)-one]
Percent Control (GSK3B): 68%
Percent Control [1]: 61%
Percent Control (MLK3): 88%
Percent Control (FGFR2): 80%
Percent Control (SNRK): 84%
Percent Control (FLT3-autoinhibited): 54%
Percent Control (PIK4CB): 64%
Percent Control (CHEK1): 85%
Percent Control (KIT(V559D,V654A)): 48%
Percent Control (HIPK3): 65%
Percent Control (MAPKAPK5): 81%
Percent Control (RIPK1): 100%
Percent Control (NDR2): 88%
Percent Control (PFTK1): 94%
in vitro phosphorylation of T308 by PDK1 (Akt): impaired
Percent Control (ULK3): 86%
Percent Control (MEK3): 81%
Percent Control (KIT): 26%
Percent Control (PKN1): 89%
Percent Control (CDK5): 75%
Percent Control (PAK1): 82%
Percent Control (PKAC-alpha): 87%
Percent Control (EGFR): 89%
Percent Control (WNK3): 98%
Percent Control (SgK110): 100%
Percent Control (PLK3): 83%
Percent Control (PIK3CG): 94%
Percent Control (CAMK1B): 52%
Percent Control (PIM2): 68%
Percent Control (TRPM6): 78%
Percent Control (DYRK1B): 76%
Percent Control (DDR1): 84%
Percent Control (MRCKA): 100%
Percent Control (MST4): 53%
Percent Control (PFTAIRE2): 81%
Percent Control (JNK1): 75%
Percent Control (MLCK): 78%
Percent Control (VRK2): 82%
Percent Control (CLK3): 92%
Percent Control (QSK): 85%
Percent Control (LOK): 82%
Percent Control (ULK1): 74%
Percent Control (NIK): 93%
Percent Control (CSNK2A1): 78%
Percent Control (BRAF): 84%
Percent Control (WNK2): 84%
Percent Control (IKK-epsilon): 100%
Percent Control (KIT(V559D)): 20%
Percent Control [2]: 92%
Percent Control (MST1R): 100%
Percent Control (PIK3CA(E542K)): 82%
Percent Control (RET(V804M)): 85%
Percent Control (CSNK1G2): 74%
Percent Control (MST1): 90%
